Experimental data as given in patent publication US20200190172A1, “METHOD FOR DIAGNOSING/DETERMINING THE EFFECTIVENESS OF TREATMENT FOR DEPRESSION” (Centre National De La Recherche Scientifique, priority 2016, published 2020).
Where no end group is shown, it is not given here.

What was measured:
mice = experiment: Porsolt Forced Swim Test (FST); type: in vivo, mice (C57BL/6J); conditions: for immobility time compared to saline solution: FST, final 4 min of 6 min, p<0.0001 spadin, 12-27 PE, 22-28 PE, p=0.0026 14-25 PE; for Antidepressant activity: Porsolt Forced Swim Test, intravenous injection, mice
Protocol: The experiments were performed on males of 20-25 g C57BL/6J of 8-10 weeks old (January France Elevage) in accordance with the policies on the welfare and use of laboratory animals set out in European Community Directive 2010/63/EU. The local ethics committee (CIEPAL) has approved the protocols used in this study (Protocol Number 00.893.02).
After intravenous injection of saline solution or various tested peptides, the mice (n=10-12 per group) were placed individually in a cylinder (height: 30 cm, diameter: 15 cm) filled with water to a depth of 12 cm (temperature: 22±1° C.) for 6 min. The total immobility time was recorded during the final 4 min (Porsolt et al., 1977).

[1] = tested on: anti-spadin antibodies (AB1 polyclonal antibody); experiment: AlphaLISA competition assay: biotinylated spadin / anti-spadin antibody displaced by peptides; type: binding, rabbit; conditions: for recognition by the anti-spadin antibodies (AB1): AlphaLISA, FIG. 1A-1C; for IC50: competition with 10 nM biotinylated spadin, antibody 1:1000
Protocol: The antibody used was the AB1 antibody, as mentioned above.
When two microbeads (acceptors and donors) were in close proximity, the signal was produced by a molecular interaction between the binding partners on the beads. The propeptide present in the serum sample was able to interfere with this interaction leading to competition. […] After the addition of donor and acceptor beads and an additional incubation for 2 hours at room temperature, the plates were read using an Enspire reader (Perkin). […] The quantity of propeptide was determined from its signal percent inhibition and calculated using the standard curve.

[2] = Stability of PE in human serum (AlphaLISA); type: in vitro ADME; conditions: serum with or without EDTA, room temperature (22° C.), 24 h
Protocol: FIG. 3: FIG. 3 is a histogram representing the stability of PE in the human serum. Serums with or without EDTA (n=7 for each matrix) from healthy blood donors were tested for their stability at room temperature for 24 h. The PE concentration for each incubation period was determined using an AlphaLISA assay method. The average concentrations at the different points in time are expressed as an average ±SEM.
The antidepressant activity of the analogs was tested using the FST. […] (Ordinarily ANOVA, F5.54=20.21, **** p<0.0001 for spadin, 12-27 PE and 22-28 fragments compared to saline mice treated with a saline solution, ** p=0.0026 for 14-25 PE fragment compared to saline mice treated with a saline solution; error bars, average ±SEM). […] A study of the stability of PE in human serum was carried out. FIG. 3 is a histogram representing the stability of PE in human serum. Serums with or without EDTA (n=7 for each matrix) from healthy blood donors were tested for their stability at room temperature (22° C.) for 24 h. The PE concentration for each incubation period was determined using an AlphaLISA assay method. In FIG. 3, the average concentrations at the different time points are expressed as an average ±SEM. […] The unpaired t test for the PE concentration between serum and EDTA-serum indicated no significant difference for each time.

AB2 polyclonal antibody = experiment: Recognition of PE fragments by AB2 polyclonal antibody (FIG. 1A); type: binding, rabbit
From the text: FIG. 1: FIG. 1A is a diagram representing the structure/recognition relationships of the antibodies AB1 and AB2 according to the different fragments. […] FIGS. 1B and 1C represent the relative affinities for spadin, PE and analogs assayed by the detection method.
In particular, antibodies AB1 and AB2 were obtained by injecting into two rabbits, namely Oryctolagus cuniculus, spadin coupled to KLH (Keyhole limpet hemocyanin protein) (AB1) or mini-spadin (22-28 PE) coupled to KLH (AB2) on day 0, DO (1 mg), day 7, D7 (1 mg), day 14, D14 (1 mg) and day 29, D29 (1 mg). Blood samples, namely 20 ml, were taken on day 27 (D27) and day 42 (D42). The polyclonal serum was obtained by centrifuging at 1200×g for 10 min. The polyclonal serum corresponding to the supernatant was recovered. The immune response was checked by ELISA for each antibody. The antibodies contained in the serum were kept at −20° C.

TREK-1 potassium channel = target: T1, TREK-1 potassium channel (Mus musculus, UniProt P97438); conditions: injected intravenously or intraperitoneally into mice; by inhibiting TREK-1 channel activity; cited from earlier work
T1 construct: host or cells: living mice (endogenous channel)
T1 sequence (P97438 1-426): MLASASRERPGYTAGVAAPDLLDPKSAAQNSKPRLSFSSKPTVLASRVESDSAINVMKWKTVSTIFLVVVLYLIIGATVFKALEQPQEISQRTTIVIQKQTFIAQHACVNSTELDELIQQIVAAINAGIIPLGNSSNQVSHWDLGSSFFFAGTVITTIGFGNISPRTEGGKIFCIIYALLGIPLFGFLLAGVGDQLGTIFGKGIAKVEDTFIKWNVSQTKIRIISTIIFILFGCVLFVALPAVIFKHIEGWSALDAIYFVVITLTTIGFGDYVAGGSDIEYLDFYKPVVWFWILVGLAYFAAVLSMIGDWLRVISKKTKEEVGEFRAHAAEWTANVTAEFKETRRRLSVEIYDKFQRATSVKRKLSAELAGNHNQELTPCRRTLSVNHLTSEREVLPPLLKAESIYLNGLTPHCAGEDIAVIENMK

[3] = target: polyclonal antibodies (AB1) directed against the peptide of sequence … (Spadin); experiment: AlphaLISA competition, unlabelled peptide against 10 nM biotinylated spadin on AB1 (1:1000)
[4] = target: polyclonal antibodies (AB1) directed against the peptide of sequence … (Spadin); experiment: AlphaLISA competition against biotinylated spadin (differs from Table 2)

| Molecule | Antidepressant activity (mice) | recognition by the anti-spadin antibodies (AB1) [1] | IC50 [1] | IC50 [3] | further results |
| --- | --- | --- | --- | --- | --- |
| LPRWSGPIGVSW [14-25 PE, peptide fragment 14 to 25 of the propeptide] | showed an antidepressant activity and Yes | recognized | 3.44 nM | – | immobility time compared to saline solution (mice): shorter immobility time; recognition by the anti-spadin antibodies (AB1) ([1]; listed as SEQ ID NO 4): binds |
| QDRLDAPPPPAAPLPRWSGPIGVSWGLRAAAAGGAFPRGGRWRR [PE] | – | – | – | – | stability of PE in human serum [2]: stability of the SLI measurement for 24 hours at room temperature |
| QDRLDAPPPPAAPLPR [1-16 PE, peptide fragment 1 to 16 of the propeptide] | No | not recognized | > 1000 nM | – | – |
| WSGPI [SEQ ID NO 5] | – | binds | – | – | – |
| APLPRWSGPIGVSWGL [12-27 PE, peptide fragment 12 to 27 of the propeptide] | showed an antidepressant activity and Yes | recognized | 1.73 nM | – | immobility time compared to saline solution (mice): shorter immobility time; recognition by the anti-spadin antibodies (AB1) ([1]; listed as SEQ ID NO 3): binds |
| GVSWGLR [22-28 PE, peptide fragment 22 to 28 of the propeptide] | Yes | not recognized | > 1000 nM | – | immobility time compared to saline solution (mice): shorter immobility time; binding by AB2 polyclonal antibody (AB2 polyclonal antibody): bound; recognition by the anti-spadin antibodies (AB1) ([1]; listed as SEQ ID NO 6): sole exception |
| C[C@H](N)C(=O)NCC(=O)N[C@H]1CSSC[C@@H](C(=O)O)NC(=O)[C@H](CO)NC(=O)[C@H]([C@@H](C)O)NC(=O)[C@H](Cc2ccccc2)NC(=O)[C@H]([C@@H](C)O)NC(=O)[C@H](CCCCN)NC(=O)[C@H](Cc2c[nH]c3ccccc23)NC(=O)[C@H](Cc2ccccc2)NC(=O)[C@H](Cc2ccccc2)NC(=O)[C@H](CC(N)=O)NC(=O)[C@H](CCCCN)NC1=O [somatostatin-14, reference compound] | – | not recognized | – | – | recognition by the anti-spadin antibodies (AB1) ([1]; listed as somatostatin): incapable of interfering |
| APLPRWSGPIGVSWGLR [spadin] | showed an antidepressant activity | recognized | 2.5 nM | – | immobility time compared to saline solution (mice): shorter immobility time; Antidepressant activity (mice; listed as spadin 12-28 PE): Yes; antidepressant (AD) activities (TREK-1 potassium channel): powerful antidepressant (AD) activities; binding by AB2 polyclonal antibody (AB2 polyclonal antibody): bound; recognition by the anti-spadin antibodies (AB1) ([1]; listed as SEQ ID NO 2): binds |
| GVSWGLR [22-28 PE] | – | – | – | > 1000 nM | – |
| APLPRWSGPIGVSWGLR [spadin 12-28 PE] | – | – | – | 2.5 nM | – |
| QDRLDAPPPPAAPLPR [1-16 PE (pro-spadin)] | – | – | – | > 1000 nM | – |
| APLPRWSGPIGVSWGL [12-27 PE] | – | – | – | 1.73 nM | IC50 [4]: 3.44 nM |
| LPRWSGPIGVSW [14-25 PE] | – | – | – | 3.44 nM | IC50 [4]: 1.73 nM |
| QDRLDAPPPPAAPLPRWSGPIGVSWGLRAAAAGGAFPRGGRWRR [Propeptide (PE) 44AA] | – | – | – | 2.18 nM | – |
